Key:
RCAR11-ABI2 = system: T1, RCAR11-ABI2; assay: In vitro phosphatase assay, ABI2 with RCAR11; type: biochemical, Arabidopsis thaliana; details: 100 nM ABI2, 200 nM RCAR11
T1 construct: 6xHis (N); made in house; host or cells: Escherichia coli BL21
Method: Expression, purification, and analysis of RCAR and PP2C proteins were performed essentially as described ([Ruschhaupt et al., 2019]). Briefly, the ABA receptors RCAR1, RACR8, and RCAR11 were expressed with an aminoterminal histidine tag using the pSEVA431_LII_6xHIS::RCAR1/RCAR8/RCAR11. ABA coreceptors were expressed as histidine-tagged fusions with the maltose-binding protein using the pSEVA431_LII_6xHIS::MBP::ABI2/HAB1. All constructs were transformed and expressed in Escherichia coli strain BL21 and purified to homogeneity according to supplier’s instruction (GE Healthcare, Chicago, USA). The receptor assay was performed with 100 nM PP2C and a two-fold molar excess of RCAR. Values are means ± SD of three replicates. […] The maximum inhibition was set to 100% in the figures. The phosphatase activity was measured using 4-methylumbelliferyl-phosphate as a substrate ([Meinhard and Grill, 2001]). The increase in fluorescence was recorded over 25 min with excitation and emission wavelengths at 360 and 460 nm, respectively, using a Synergy 2 plate reader (Bio-Tec, Winooski, USA).

RCAR1/PYL9-ABI2 = assay: Yeast ABA signal pathway LUC reporter, RCAR1-ABI2; type: cell-based, Arabidopsis thaliana
Method: The yeast cultivation and the life luciferase assay were performed as described ([Ruschhaupt et al., 2019]). Briefly, the reporter yeast expressing an ABA-dependent luciferase gene (LUC) was transformed with different combinations of ABA signaling components as indicated. Golden gate cloning ([Binder et al., 2014]) was used to construct pYEAST_LII_5‐6_CEN_URA vector with TDH3 promoter and TDH1 terminator (tTDH1), pYEAST_LII_1‐2_CEN_LEU vector with GK1 promoter and tTDH1, and pYEAST_LII_3‐4_CEN_TRP with the GAL1 promoter (pGAL1) and tTDH1 to express RCARs, PP2Cs, and OST1 (SnRK2.6), respectively ([Ruschhaupt et al., 2019]). […]
Colonies of freshly transformed cells were inoculated in 0.5 mL supplemented synthetic dextrose (SD) medium and incubated at 30°C in a gyratory shaker (Thermoshake-THO500, Gerhardt, Königswinter, Germany) at 200 rpm for 16-18 h. […] Light emission of yeasts was detected in a HIDEX plate luminometer (HIDEX, Turku, Finland) after injection of 100 µL freshly prepared luciferin substrate (1 mM D-luciferin, Promega) provided in 100 mM citric acid, pH 3 ([Leskinen et al., 2003]) for 5 s and was corrected for background. The LUC activity was normalized to the cell density (OD600) measured in 96-well flat plates (Sarstedt, Nümbrecht, Germany). […]

## CCC(=C/C(=O)O)/C=C/C(O)(C(C)C)C1(C#N)CC1 (centres unmarked) [CCP2]
RCAR11-ABI2
  Inhibition of ABI2 compared to ABA: comparable to ABA
RCAR1/PYL9-ABI2
  Higher exogenous concentration required for reporter expression comparable to 1 µM ABA: > 30 x

— article PMC9894685, “Abscisic acid agonists suitable for optimizing plant water use” (Frontiers in Plant Science, 2023)
